From US20230292776A1, “GAS PHASE TREATMENT OF PRODUCE” (priority 2022, published 2023)

Legend:
Type in all cases: in vivo
[1] = system: mold; test: AITC vapor against mold growth on produce in an airtight bin (general description)
Method: The plurality of produce items is contacted with the antimicrobial agent for a length of time in a range of 1 minute to 100 hours (e.g., 10 minutes to 1 hour). The length of time is dependent on a variety of factors, such as type of produce, target pathogen, and the degree to which the enclosure is sealed. Examples include exposure times between 15 minutes and 96 hours for allyl isothiocyanate (AITC) in an airtight bin. […] Lower antimicrobial agent concentrations with longer exposure times or higher antimicrobial concentrations with shorter exposure times can also be used. For example, the plurality of produce items is contacted with the antimicrobial agent for a length of time in a range of 15 minute to 72 hours.
A concentration of the antimicrobial agent in the headspace of the enclosure is typically in a range of about 20 parts per million by volume (ppmv) to about 5000 ppmv (e.g., about 550 ppmv to about 4800 ppmv, or about 25 ppmv to about 1250 ppmv). Depending on type of produce and exposure time in the enclosure, antimicrobial agent concentrations greater than about 2200 ppmv can sometimes damage the produce. […] In some embodiments, the antimicrobial agent is provided in a concentration to the enclosure in a headspace at least about 1200 ppmv, at least about 1250 ppmv, or about 1250 ppmv to about 5000 ppmv, or about 1250 ppmv to about 4900 ppmv.

[2] = system: non-Pd latent fungal infection; test: AITC vapor against non-Pd latent fungal infection in mandarins; settings: Example 5; 125 μL (730 ppm), 1 hour exposure
Method: Example 5. The antifungal activity of a range of AITC vapor exposure times was tested to determine the effects against Pd in mandarins. All samples were wounded by puncturing with a screw. Mandarins were infected by dispensing 1000 Pd spores suspended in 10 μL of water in the wound. The fruit was then placed in an airtight container, 125 μL of AITC was dispensed onto a Whatman filter paper disc, the disc suspended in front of a battery-powered fan, and the container closed for 15 minutes to 2 hours. The test groups were then left at ambient temperature, high humidity, and assessed for Pd mold after 6 days. The test groups consisted of mandarins that were: uninfected and untreated; infected and untreated; infected and treated with 0.5 g/L imazalil; infected, treated with 125 μL of AITC on the filter paper, and exposed to the vapor for 15 minutes, 30 minutes, 1 hour, and 2 hours. […] A non-Pd latent fungal infection confounded results for the imazalil control and the 1 hour AITC treatment. […] A 30 minute exposure to an AITC vapor concentration of 730 ppm appeared to either substantially prevent mold infection or reduce the severity of infection. Longer exposure time increased the antifungal efficacy. […] Longer exposure times were effective at largely eliminating these pathogens.

[3] = system: Botrytis cinerea (Bc); test: Antifungal activity of AITC vapor and coating agent against Botrytis cinerea (Bc) in strawberries; settings: 30 minutes
Method: Example 13. The antifungal activity of AITC vapor against Bc in strawberries was tested. All samples were wounded by making a 3 mm deep puncture in the skin. Samples were infected by dispensing 1000 Bc spores suspended in 10 μL of water in the wound. Samples were then incubated at ambient temperature, imaged, and assessed for mold over the following 3 days. The test group consisted of strawberries that were: uninfected and untreated; infected and untreated; and exposed for 30 minutes to the vapor of 125 uL AITC dispensed on Whatman filter paper. […] The infection rates in the initially uninfected sample indicate that the step involving the initial infection of the wound by dispensing the Bc spores may not be necessary to promote infection in the test groups.
Example 14. The antifungal activity of a range of AITC vapor concentrations against Bc in strawberries was tested. Samples were treated by exposure for 30 minutes to the vapor of a range of volumes of AITC disposed on a filter paper disc, then incubated at ambient temperature, imaged, and assessed for mold over the following 6 days. Test groups consisted of strawberries that were untreated and strawberries exposed to the vapor of 62.5 μL, 125 μL, 250 μL, and 500 μL of AITC. […] On day 6, 83% of the untreated control strawberries were infected, 100% of the 62.5 μL AITC dose strawberries were infected, 13% of the 125 μL AITC dose strawberries were infected, and 0% of the 250 and 500 μL AITC dose strawberries were infected. For strawberries incubated at room temperature, all of the AITC doses above 62.5 μL were effective at preventing mold, with doses above 125 μL substantially eliminating mold.
Example 15. The antifungal activity of AITC vapor under different exposure conditions against Bc in strawberries was tested. Test groups consisted of strawberries that were untreated and treated by exposure for 30 minutes to the vapor of 125 μL of AITC disposed on a filter paper disc. Test groups were then incubated in either open or closed containers at 4° C., imaged, and assessed for mold over the following 14 days. […] All samples were free of mold through 7 days. On day 12, 16.7% of the open air controls were infected, 29.2% of closed container controls were infected, and 0% of the AITC treated were infected. On day 14, 33.3% of the open air controls were infected, 41.7% of closed container controls were infected, 0% of the open air AITC treated were infected, and 4.2% of the closed container AITC treated were infected. For strawberries incubated at 4° C., AITC treatment was effective in reducing the incidence of mold over a two week period. While ⅓ of the open air untreated samples were infected, none of the open air AITC-treated were infected. Over 40% of the closed container controls were infected. A single strawberry was infected in the closed container AITC-treated test group.
Example 16. The antifungal activity of AITC vapor against Bc in strawberries treated with a coating agent (95 wt % glyceryl monostearate and 5 wt % sodium stearate) and exposed to vapor in clamshells was tested. Test groups consisted of strawberries that were: untreated; dipped in 40 g/L solution of the coating agent; exposed for 30 minutes to the vapor of 125 μL of AITC disposed on a filter paper disc; and dipped in 40 g/L solution of the coating agent and exposed for 30 minutes to the vapor of 125 μL of AITC disposed on a filter paper disc. Samples were treated, incubated at ambient temperature, imaged, and assessed for mold over the following 4 days. […] On day 3, 52.8% of the controls were infected, 42.1% of the coating agent were infected, 26.3% of the AITC were infected, and 9.3% of the coating agent+AITC were infected. On day 4, 88.9% of the controls were infected, 76.3% of the coating agent were infected, 71% of the AITC were infected, and 34.9% of the coating agent+AITC were infected. […] Bowl dipping in the coating solution also presented challenges for drying around the calyx.
Example 17. […]

C=CCN=C=S [AITC, allyl isothiocyanate]
mold growth on the produce ([1]; AITC concentration of 1000 ppm, exposure time of 15 minutes, airtight bin): slowed mold growth on the produce | efficacy against mold on the produce ([1]; AITC concentration of 1000 ppm, exposure time of 30 min or longer): good efficacy | effect on mold growth ([1]; AITC concentrations in a range of 550 ppmv to 4800 ppmv): some inhibitory effect on mold growth | effect on mold growth ([1]; AITC concentrations over 1000 ppmv): tended to be completely inhibitory | response of latent pathogens to AITC vapor [2]: substantially resistant to AITC vapor | visible mold on strawberries ([3]; Example 13, 125 uL, after 24 hours): no mold was visible | fraction of samples showing visible mold ([3]; Example 13, 125 uL, after 48 hours): ⅛ | fraction of samples showing visible mold ([3]; Example 13, 125 uL, after 72 hours): ¼ | strawberries infected ([3]; Example 14, 62.5 μL dose, day 6, ambient temperature): 100% | strawberries infected ([3]; Example 14, 125 μL dose, day 6, ambient temperature): 13% | strawberries infected ([3]; Example 14, 250 and 500 μL dose, day 6, ambient temperature): 0% | strawberries infected ([3]; Example 15, 125 μL, 4° C., closed container, day 14): 4.2% | strawberries infected ([3]; Example 15, 125 μL, 4° C., open air, day 14): 0% | strawberries infected ([3]; Example 15, 125 μL, incubated at 4° C., day 12): 0% | strawberries infected ([3]; Example 16, clamshells, coating agent 40 g/L dip, AITC 125 μL, day 3): 26.3% | strawberries infected ([3]; Example 16, clamshells, coating agent 40 g/L dip, AITC 125 μL, day 4): 71%
